Test results as given in patent US9296774B2, “Halogenated dideoxy sugar derivates, preparation method and application thereof” (Suzhou Harmony Biotechnology Co., Ltd., priority 2009, dated 2016).

Experiments:
mouse [1] = assay: Acute toxicity (LD50), mouse ip injection; details: mouse ip after injection
[2] = system: anaplastic thyroid carcinoma TA-K cells; assay: Mouse transplant tumor, human anaplastic thyroid carcinoma TA-K;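 further: Tumor-bearing mice compared against a saline-treated control group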
Method: (§1) Saline solution was used as a control. The positive group CTX was treated with the compounds at an amount of 0.4 ml/20 g. The compounds were applied once a day for consecutive 7 days.

[3] = system: AsPc human pancreatic cancer cells; assay: Mouse transplant tumor, AsPc human pancreatic cancer;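 further: Saline-treated mice served as the control group, with a CTX-treated group as positive reference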
Method: as §1

[4] = system: MX-1 human breast cancer cells; assay: Mouse transplant tumor, MX-1 human breast cancer;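 further: mice given saline served as the control group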
Method: as §1

mouse [5] = assay: Acute toxicity (LD50), mouse ig
[6] = system: MGC human stomach cancer cells; assay: Mouse transplant tumor, MGC human stomach cancer;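 further: control group received saline vehicle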
Method: Saline solution was used as a control. The positive group CTX was treated with the compounds at an amount of 0.4 ml/20 g. The compounds were applied once a day for consecutive 7 days. The animals were then compensated.

05-732 human bone tumor = assay: Mouse transplant tumor, 05-732 human osteosarcoma
Method: as §1

B16 malignant melanoma = assay: Mouse transplant tumor, B16 malignant melanoma
Method: as §1

[7] = human anaplastic thyroid carcinoma TA-K, 125 mg/kg once a day for 7 days
[8] = 125 mg/kg once a day for 7 days
[9] = 125 mg/kg once a day for 7 days, animal weight at end
[10] = 125 mg/kg once a day for 7 days, animal weight at start
[11] = 05-732 human osteosarcoma, 125 mg/kg once a day for 7 days
[12] = B16, 125 mg/kg once a day for 7 days

`CC(=O)OCC1OC(OP(=O)(O)N(CCCl)CCCl)C(Br)CC1OC(C)=O` (centres unmarked) [Compound 12] was tested, and the LD50 (mouse [1]) was 306.4 mg/kg, the “inhibitive effect on mouse transplant tumor (in words)” value (from here on “inhibitive effect”) ([2]; anaplastic thyroid carcinoma TA-K, 125 mg/kg) was “significant effect” and the “Inhibition of tumor growth” value [2, 7] was 75.8. It also gave a Weight of tumor [2, 7] of 0.6, a weight end ([2]; human anaplastic thyroid carcinoma TA-K, 125 mg/kg once a day for 7 days, animal weight at end) of 18.4 and a weight start ([2]; human anaplastic thyroid carcinoma TA-K, 125 mg/kg once a day for 7 days, animal weight at start) of 18.2. The “inhibitive effect” value ([3]; 125 mg/kg) was “significant effect”, the “Inhibition of tumor growth” value [3, 8] was 77.5 and the Weight of tumor [3, 8] was 0.5. For the same molecule, the weight end [3, 9] was 18.4, the weight start [3, 10] was 18.2 and the “inhibitive effect” value ([4]; 125 mg/kg) was “significant effect”. For the same molecule, the “Inhibition of tumor growth” value [4, 8] was 82.1, the Weight of tumor [4, 8] was 0.4 and the weight end [4, 9] was 18.4. For the same molecule, the weight start [4, 10] was 18.2, the LD50 (mouse [5]) was 2101.4 mg/kg and the “inhibitive effect” value ([6]; 125 mg/kg) was “significant effect”. For the same molecule, the “Inhibition of tumor growth” value [6, 8] was 80.5, the Weight of tumor [6, 8] was 0.5 and the weight end [6, 9] was 18.4. The weight start [6, 10] was 18.2, the “inhibitive effect” value (05-732 human bone tumor; 05-732 human bone tumor, 125 mg/kg) was “significant effect” and the “Inhibtion of tumor growth” value (05-732 human bone tumor; [11]) was 75.1. For the same molecule, the Weight of tumor (05-732 human bone tumor; [11]) was 0.5, the weight end (05-732 human bone tumor; 05-732 human osteosarcoma, 125 mg/kg once a day for 7 days, animal weight at end) was 18.4 and the weight start (05-732 human bone tumor; 05-732 human osteosarcoma, 125 mg/kg once a day for 7 days, animal weight at start) was 18.2. For the same molecule, the “Inhibition of tumor growth (%)” value (B16 malignant melanoma; [12]) was 79.5%, the Weight of tumor (B16 malignant melanoma; [12]) was 0.5 and the weight end (B16 malignant melanoma; B16, 125 mg/kg once a day for 7 days, body weight at end) was 18.4. For the same molecule, the weight start (B16 malignant melanoma; B16, 125 mg/kg once a day for 7 days, body weight at start) was 18.2 and the “inhibitive effect” value (B16 malignant melanoma; B16 malignant melanoma, 125 mg/kg) was “significant effect”.
